Data published in EP0338372A2, “Solubilized pro-drugs” (AMERICAN CYANAMID COMPANY, priority 1988, dated 1989).
Where two headings read alike, the source gives them in different places.

How the values were obtained:
[1] = system: lymphocytic leukemia P388; assay: Lymphocytic leukemia P388 test; type: in vivo, BDF1 mice
melanotic melanoma B16 = assay: Melanotic Melanoma B16 test; type: in vivo, BDF1 mice
L1210 leukemia cells = assay: Lymphocytic Leukemia L1210 test; type: in vivo, BDF1 mice
solubility = settings: 0.1 M phosphate buffer, pH 7.5
[2] = pH 7.5
[3] = Dose 12.5 mg/kg intraperitoneally on days 1, 5 and 9
[4] = Dose 25 mg/kg intraperitoneally on days 1, 5 and 9
[5] = Dose 50 mg/kg intraperitoneally on days 1, 5 and 9
[6] = Dose 100 mg/kg intraperitoneally on days 1, 5 and 9
[7] = Dose 200 mg/kg intraperitoneally on days 1, 5 and 9
[8] = Dose 0.78 mg/kg intraperitoneally on days 1, 5 and 9
[9] = Dose 1.56 mg/kg intraperitoneally on days 1, 5 and 9
[10] = Dose 3.12 mg/kg intraperitoneally on days 1, 5 and 9
[11] = Dose 6.25 mg/kg intraperitoneally on days 1, 5 and 9
[12] = Dose 0.19 mg/kg intraperitoneally on days 1, 5 and 9
[13] = Dose 0.39 mg/kg intraperitoneally on days 1, 5 and 9
[14] = Dose 3.25 mg/kg intraperitoneally on days 1, 5 and 9

CCCC(=O)N1CCN=C1NN=Cc1c2ccccc2c(C=NNC2=NCCN2C(=O)CCC)c2ccccc12 [2,2-(9,10-Anthracenediylbis(methylidyne-1-hydrazinyl-2-ylidene)]bis4,5-dihydro-1-(1-oxobutyl)-1H-imidazole]]
Median Survival [1, 3]: 12.5 days
T/C x 100 % [1, 3]: 125%
Median Survival [1, 4]: 12.5 days
T/C x 100 % [1, 4]: 125%
Median Survival [1, 5]: 14 days
T/C x 100 % [1, 5]: 140%
Median Survival [1, 6]: 14.5 days
T/C x 100 % [1, 6]: 145%
Median Survival [1, 7]: 15.5 days
T/C x 100 % [1, 7]: 155%
Median Survival (melanotic melanoma B16; [4]): 26 days
T/C x 100 % (melanotic melanoma B16; [4]): 118%
Median Survival (melanotic melanoma B16; [5]): 24.5 days
T/C x 100 % (melanotic melanoma B16; [5]): 111%
Median Survival (melanotic melanoma B16; [6]): 28.5 days
T/C x 100 % (melanotic melanoma B16; [6]): 130%
Median Survival (melanotic melanoma B16; [7]): 27.5 days
T/C x 100 % (melanotic melanoma B16; [7]): 125%

O=C(c1ccccc1)N1CCN=C1N(N=Cc1c2ccccc2c(C=NN(C(=O)c2ccccc2)C2=NCCN2C(=O)c2ccccc2)c2ccccc12)C(=O)c1ccccc1 [2,2-(9,14-Anthracenediyldimethylidyne)bis[1-(1-benzoyl-4,5-dihydro-1H-imidazol-2-yl)hydrazide] of Benzoic Acid]
Median Survival [1, 8]: 15.5 days
T/C x 100 % [1, 8]: 155%
Median Survival [1, 9]: 17.5 days
T/C x 100 % [1, 9]: 175%
Median Survival [1, 10]: 17 days
T/C x 100 % [1, 10]: 170%
Median Survival [1, 11]: 18 days
T/C x 100 % [1, 11]: 180%
Median Survival [1, 3]: 19 days
T/C x 100 % [1, 3]: 190%
Median Survival [1, 4]: 19.5 days
T/C x 100 % [1, 4]: 195%
Median Survival [1, 5]: 20 days
T/C x 100 % [1, 5]: 200%
Median Survival [1, 6]: 23 days
T/C x 100 % [1, 6]: 320%
Median Survival [1, 7]: 32 days
T/C x 100 % [1, 7]: 320%
Median Survival (melanotic melanoma B16; [3]): 29.5 days
T/C x 100 % (melanotic melanoma B16; [3]): 134%
Median Survival (melanotic melanoma B16; [4]): 32 days
T/C x 100 % (melanotic melanoma B16; [4]): 145%
Median Survival (melanotic melanoma B16; [5]): 40 days
T/C x 100 % (melanotic melanoma B16; [5]): 182%
Median Survival (melanotic melanoma B16; [6]): 57.5 days
T/C x 100 % (melanotic melanoma B16; [6]): 261%
Median Survival (melanotic melanoma B16; [7]): 50 days
T/C x 100 % (melanotic melanoma B16; [7]): 227%

O=C(O)CCC(=O)N1CCN=C1NN=Cc1c2ccccc2c(C=NNC2=NCCN2C(=O)CCC(=O)O)c2ccccc12 [2,2[9,10-Anthracenediylbis(methylidene-1-hydrazinyl-2-ylidene)]bis[4,5-dihydro-gamma-oxo-1H-imidazole-1-butanoic Acid]]
Median Survival [1, 12]: 15 days
T/C x 100 % [1, 12]: 150%
Median Survival [1, 13]: 15.5 days
T/C x 100 % [1, 13]: 155%
Median Survival [1, 8]: 17 days
T/C x 100 % [1, 8]: 170%
Median Survival [1, 9]: 17 days
T/C x 100 % [1, 9]: 170%
Median Survival [1, 10]: 19 days
T/C x 100 % [1, 10]: 190%
Median Survival [1, 11]: 19 days
T/C x 100 % [1, 11]: 190%
Median Survival [1, 3]: 23 days
T/C x 100 % [1, 3]: 230%
Median Survival (melanotic melanoma B16; [14]): >60 days
T/C x 100 % (melanotic melanoma B16; [14]): >273%
Median Survival (melanotic melanoma B16; [11]): >60 days
T/C x 100 % (melanotic melanoma B16; [11]): >273%
Median Survival (melanotic melanoma B16; [3]): 55.5 days
T/C x 100 % (melanotic melanoma B16; [3]): 252%
Median Survival (L1210 leukemia cells; [13]): 11.5 days
T/C x 100 % (L1210 leukemia cells; [13]): 135%
Median Survival (L1210 leukemia cells; [8]): 11.2 days
T/C x 100 % (L1210 leukemia cells; [8]): 132%
Median Survival (L1210 leukemia cells; [9]): 12 days
T/C x 100 % (L1210 leukemia cells; [9]): 141%
Median Survival (L1210 leukemia cells; [10]): 12.3 days
T/C x 100 % (L1210 leukemia cells; [10]): 145%
Median Survival (L1210 leukemia cells; [11]): 12.2 days
T/C x 100 % (L1210 leukemia cells; [11]): 144%
Median Survival (L1210 leukemia cells; [3]): 13.2 days
T/C x 100 % (L1210 leukemia cells; [3]): 155%

CC(=O)N1CCN=C1N(N=Cc1c2ccccc2c(C=NN(C(C)=O)C2=NCCN2)c2ccccc12)C(C)=O [2-[[10-[[Acetyl(1-acetyl-4,5-dihydro-1H-imidazol-2-yl)hydrazono]methyl]-9-anthracenyl]methylene]-1-(4,5-dihydro-1H-imidazol-2-yl)hydrazide of Acetic Acid]
Median Survival [1, 11]: 12.5 days
T/C x 100 % [1, 11]: 125%
Median Survival [1, 3]: 13 days
T/C x 100 % [1, 3]: 130%
Median Survival [1, 4]: 15.5 days
T/C x 100 % [1, 4]: 155%
Median Survival [1, 5]: 16.5 days
T/C x 100 % [1, 5]: 165%
Median Survival [1, 6]: 17 days
T/C x 100 % [1, 6]: 170%
Median Survival [1, 7]: 17.5 days
T/C x 100 % [1, 7]: 175%
Median Survival (melanotic melanoma B16; [3]): 28 days
T/C x 100 % (melanotic melanoma B16; [3]): 127%
Median Survival (melanotic melanoma B16; [4]): 30 days
T/C x 100 % (melanotic melanoma B16; [4]): 136%
Median Survival (melanotic melanoma B16; [5]): 29.5 days
T/C x 100 % (melanotic melanoma B16; [5]): 134%
Median Survival (melanotic melanoma B16; [6]): 37 days
T/C x 100 % (melanotic melanoma B16; [6]): 168%
Median Survival (melanotic melanoma B16; [7]): 40 days
T/C x 100 % (melanotic melanoma B16; [7]): 182%

O=C(O)c1cn(C2CC2)c2cc(N3CCN(P(=O)(O)O)CC3)c(F)cc2c1=O [Example 47, t-Cyclopropyl-6-fluoro-1,4-dihydro-4-oxo-7-(4-phosphono-1-piperazinyl)-3-quinolinecarboxylic Acid]
solubility (solubility): soluble

CCOP(=O)(OCC)N1CCN(c2cc3c(cc2F)c(=O)c(C(=O)OCCOC)cn3C2CC2)CC1 [Example 49, 1-Cycfopropyl-7-[4-(diethoxyphosphinyl)-1-piperazinyl]-6-fluoro-1,4-dihydro-4-oxo-3-quinolinecarboxylic Acid, 2-Methoxyethyl Ester]
solubility [2]: easily soluble

[2-[[[10-[((4,5-Dihydro-1H-imidazol-2-yl)ethylhydrazono]methyl]-9-anthracenyl]methylene] hydrazino]-4,5-dihydro-1H-imidazol-1-yl]phosphonic Acid, Hydroiodide
Median Survival ([1]; mouse, in vivo, ip, 0.4 mg/kg): 18 days
T/C x 100 % ([1]; mouse, in vivo, ip, 0.4 mg/kg): 164%
Median Survival ([1]; mouse, in vivo, ip, 0.8 mg/kg): 21.5 days
T/C x 100 % ([1]; mouse, in vivo, ip, 0.8 mg/kg): 195%
Median Survival ([1]; mouse, in vivo, ip, 1.6 mg/kg): 18 days
T/C x 100 % ([1]; mouse, in vivo, ip, 1.6 mg/kg): 164%
Median Survival ([1]; mouse, in vivo, ip, 3.2 mg/kg): 22.5 days
T/C x 100 % ([1]; mouse, in vivo, ip, 3.2 mg/kg): 205%
Median Survival ([1]; mouse, in vivo, ip, 6.3 mg/kg): 24 days
T/C x 100 % ([1]; mouse, in vivo, ip, 6.3 mg/kg): 218%
Median Survival ([1]; mouse, in vivo, ip, 12.5 mg/kg): 25 days
T/C x 100 % ([1]; mouse, in vivo, ip, 12.5 mg/kg): 227%
Median Survival ([1]; mouse, in vivo, ip, 25 mg/kg): 25 days
T/C x 100 % ([1]; mouse, in vivo, ip, 25 mg/kg): 227%
Median Survival ([1]; mouse, in vivo, ip, 50 mg/kg): 25.5 days
T/C x 100 % ([1]; mouse, in vivo, ip, 50 mg/kg): 232%

[9,10-Anthracenedlylbis(methylidyne-1-hydrazinyl-2-ylidene (4,5-dihydro-1H-imidazol-2,1-diyl)]]-phosphonic Acid Hydroiodide
Median Survival ([1]; mouse, in vivo, ip, 0.4 mg/kg): 21 days
T/C x 100 % ([1]; mouse, in vivo, ip, 0.4 mg/kg): 191%
Median Survival ([1]; mouse, in vivo, ip, 0.8 mg/kg): 19 days
T/C x 100 % ([1]; mouse, in vivo, ip, 0.8 mg/kg): 173%
Median Survival ([1]; mouse, in vivo, ip, 1.6 mg/kg): 24.5 days
T/C x 100 % ([1]; mouse, in vivo, ip, 1.6 mg/kg): 223%
Median Survival ([1]; mouse, in vivo, ip, 3.2 mg/kg): 24 days
T/C x 100 % ([1]; mouse, in vivo, ip, 3.2 mg/kg): 218%
Median Survival ([1]; mouse, in vivo, ip, 6.3 mg/kg): 22 days
T/C x 100 % ([1]; mouse, in vivo, ip, 6.3 mg/kg): 200%
Median Survival ([1]; mouse, in vivo, ip, 12.5 mg/kg): 53.5 days
T/C x 100 % ([1]; mouse, in vivo, ip, 12.5 mg/kg): 486%
Median Survival ([1]; mouse, in vivo, ip, 25 mg/kg): >60 days
T/C x 100 % ([1]; mouse, in vivo, ip, 25 mg/kg): >545%
